What follows are compounds tested against KRas G12D/Q61H double mutant (Homo sapiens (Human), UniProt P01116, G12D/Q61H) (assay: Ras GTP binding domain inhibition assay (labeled GTP)). Conditions: 20 μM compound; KRas G12D/Q61H double mutant; read-out: % Inhibition at 20 μM of K-Ras mutant and wild-type protein, KRas G12D Q61H.
Method: Buffer-I: • 50 mM Tris, pH 7.5 • 150 mM NaCl (optional) • 1 mM MgCl2 • 1 mM DTT. • KRas G12D mutant protein was expressed as a His-tagged protein. Purified His-KRas G12D protein was diluted in buffer-I to a final concentration of 3-10 μg/ml. • 200 μl of the diluted His-KRas G12D protein was added to a nickel coated 96 well plate and incubated overnight at 4° C. • The next day, wells were washed 3× in 200 μl of Buffer-I. • Then 200 μl of Buffer-I were added to each well in the presence of 1% DMSO. • Tested compounds were added to the protein-coated wells at a concentration of 20 μM, and incubated for 3 hours at room temperature. While performing IC50 measurements a serial dilution of all tested concentrations was prepared.
Then 22 μl of Cy3-GTP or Cy5-GTP was added to each well. The labeled GTP was incubated for 45 min. at room temperature. • Following GTP incubation, wells were washed 3× in Buffer-I, and 200 μl of Buffer-I were added to each well. • Following washes, the amount of bound labeled-GTP was measured with an Eppendorf AF2200 plate reader.
By substituting KRas G12D mutant protein with KRas G12C mutant, KRas wild type, KRas Q61H mutant, KRas G12D/Q61H double mutant or KRas G12C/Q61H double mutant under the assay conditions described above, KRas G12C mutant KRas wild type, KRas Q61H mutant, KRas G12D/Q61H double mutant and KRas G12C/Q61H double mutant inhibition, respectively, were each determined.

Sequence of KRas G12D/Q61H double mutant (P01116-2 other isoform, or with tags, fused parts or gaps G12D/Q61H): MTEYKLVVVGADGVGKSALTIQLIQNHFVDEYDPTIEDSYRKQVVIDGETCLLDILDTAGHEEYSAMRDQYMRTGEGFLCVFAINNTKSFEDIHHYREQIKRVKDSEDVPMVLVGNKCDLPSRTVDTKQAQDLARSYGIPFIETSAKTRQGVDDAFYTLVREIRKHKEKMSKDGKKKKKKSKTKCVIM

| Compound | inhibition at 20 µM [%] |
| --- | --- |
| Cc1n[nH]c(C2CN(C(=O)c3cnc(C)s3)CCO2)n1 (stereo not shown) | 1 to 25 |
| NC(=O)CCN1CCOC(c2nc(-c3ccccc3)cs2)C1 (stereo not shown) | 1 to 25 |
| NC(=O)c1cc(-c2csc(N3CCCCC3)n2)ccc1O | 1 to 25 |
| CC(CC(N)=O)Nc1cc(C(F)(F)F)nc(-c2ccccn2)n1 (stereo not shown) | 1 to 25 |
| Cc1nc(CN(C)CC23CC4CC(CC(C4)C2)C3)oc1C | 1 to 25 |
| CC(NC(=O)C1CSC(c2ccccc2)=N1)c1ccccn1 (stereo not shown) | 1 to 25 |
| CCN(C(=O)c1cnn(-c2ccccc2)n1)c1ccccc1 | 1 to 25 |
| Cc1nc2ccccc2n1CCNC(=O)c1cc(S(=O)(=O)N(C)C)ccc1N1CCOCC1 | 1 to 25 |
| O=[N+]([O-])c1ccc(O)c2ncccc12 | 25 to 50 |
| COC(=O)CCc1sc(NC2CCCCC2)nc1-c1ccc(OC)cc1 | 25 to 50 |
| Cc1ccc2c(c1)C1CN(C)CCC1N2Sc1ccc(Cl)cc1 (stereo not shown) | 25 to 50 |
| COc1ccc(-c2oc3ncn(CCCn4ccnc4)c(=N)c3c2-c2ccc(OC)cc2)cc1 | 25 to 50 |
| Cc1ccc(OS(=O)(=O)NCCC(c2ccccc2)c2ccccc2)cc1 | 1 to 25 |
| CC(=O)c1c(F)cccc1N1CCN(c2cccc(C(F)(F)F)c2)CC1 | 25 to 50 |
| CN(Cc1ccccc1C#N)Cc1ccccc1N1CCCCC1 | 25 to 50 |
| O=c1c(Cl)cc(C(F)(F)F)cn1Cc1csc(COc2ccc(Cl)cc2)n1 | 1 to 25 |
| CCOC(=O)c1c(NC(=O)c2c(N)n(CCCOC)c3nc4ccccc4nc23)sc2c1CCCC2 | 1 to 25 |
| CCOC(=O)c1ccc2c(c1)nc(C1CCN(S(=O)(=O)c3cccs3)CC1)n2CC | 25 to 50 |
| Cc1c(C(=O)N(CCc2ccccc2)Cc2ccccc2)cccc1[N+](=O)[O-] | 25 to 50 |
| C=CCOc1ccc(C(=O)c2ccccc2)c(OCC(=O)NC2(C#N)CCCC2)c1 | 25 to 50 |
| COC(=O)c1ccc(CN2CCN(c3cccc(C(F)(F)F)c3)CC2)cc1 | 25 to 50 |
| CCCCc1ccc([N+]2=C3SCCCN3CC2(O)c2ccc(C)cc2)cc1 (stereo not shown) | 25 to 50 |
| CCOc1ccc(S(=O)(=O)N(CC(=O)N2CCCc3ccccc32)Cc2ccco2)cc1 | 25 to 50 |

| Compound | inhibition at 20 µM [%] |
| --- | --- |
| COC(=O)c1ccc(COC(=O)c2oc3ccccc3c2COC(C)C)o1 | 25 to 50 |
| Cc1cc(C(=O)COC(=O)c2ccccc2[S+](C)[O-])c(C)n1CCC1=CCCCC1 (stereo not shown) | 1 to 25 |
| Cc1ccc(CN(Cc2ccco2)C(=O)C(c2ccccc2)c2ccccc2)o1 | 25 to 50 |
| CCOC(=O)c1c(-c2ccc(OC)cc2)oc2ccc(OCC=C(C)C)cc12 | 25 to 50 |
| COc1ccc(CCN/C(=N/C(=O)Nc2ccccc2)Nc2nc(C)cc(C)n2)cc1OC | 25 to 50 |
| CCCc1cc(=O)oc2cc(OCc3cc(C(=O)OC)c(C)o3)ccc12 | 25 to 50 |
| COc1ccc(CN(C)C(=O)c2cc(Br)c(Br)s2)c(OC)c1 | 25 to 50 |
| CC(C)(CNc1ccc(S(=O)(=O)N(Cc2ccccc2)Cc2ccccc2)cn1)N1CCOCC1 | 25 to 50 |
| CCOc1ccc(Nc2ccc([N+](=O)[O-])cc2S(=O)(=O)N(CC)CC)cc1 | 25 to 50 |
| C=CCN(Cc1ccc(Cl)s1)C(=O)COC(=O)c1cc(OC)ccc1O | 25 to 50 |
| Cc1cc2oc(=O)cc(CN(C)Cc3c(C)nn(Cc4ccccc4Cl)c3C)c2cc1C | 25 to 50 |
| COC(=O)C(NCc1ccc(-c2ccc(Cl)cc2)o1)c1ccccc1 (stereo not shown) | 25 to 50 |
| COCCNc1ccc([N+](=O)[O-])cc1C(=O)OCCOc1ccccc1 | 25 to 50 |
| CC(=O)c1ccccc1OCCN(c1nccs1)S(=O)(=O)c1ccccc1 | 25 to 50 |
| O=C(NCC(F)(F)F)c1ccc(CN(Cc2cc(Cl)cc3c2OCCO3)C2CC2)cc1 | 25 to 50 |
| O=C(c1ccc(-c2ccccc2F)o1)N(Cc1ccco1)C1CCCC1 | 51 to 75 |
| COc1ccc(CN(C(C)C2CC2)S(=O)(=O)c2cccs2)cc1 (stereo not shown) | 25 to 50 |
| CC1CCCN(c2nc(-c3ccc(O)cc3O)cs2)C1 (stereo not shown) | 25 to 50 |
| CCN(C(=O)CCc1c(C)nc(-c2ccccn2)nc1O)C1CCCC1 | 51 to 75 |
| COC(=O)c1c(CN(C)Cc2nccn2CC(F)(F)F)nc2ccccc2c1-c1ccccc1 | 25 to 50 |
| CCc1nc2ccc(C(=O)Nc3ccccc3C(=O)N3CC(C)OC(C)C3)cc2nc1CC (stereo not shown) | 25 to 50 |
| Cc1ccc(Sc2ccc(S(=O)(=O)NC3CCCC3)cc2)cc1C | 1 to 25 |
| CCOc1ccccc1N1CC(c2nc3ccccc3n2CCC2CCCCC2)CC1=O (stereo not shown) | 25 to 50 |

| Compound | inhibition at 20 µM [%] |
| --- | --- |
| CCc1nc2ccccc2c(C(=O)OCC(=O)c2cc(C)n(CCOC)c2C)c1C | 1 to 25 |
| CN(Cc1ccccc1N1CCOCC1)C(=O)c1ccc(OCc2ccccc2)cc1 | 1 to 25 |
| CCc1oc2ccccc2c1CN(C)C(=O)c1cccc(OCc2c(C)noc2C)c1 | 25 to 50 |
| C=CCn1c(C)cc(C(=O)CSc2nc3ccccc3c(=O)n2C(C)COC)c1C (stereo not shown) | 25 to 50 |
| CCN(CC)S(=O)(=O)c1ccc(C(C)NCc2ccc(Cl)s2)cc1 (stereo not shown) | 25 to 50 |
| CCCCN1CC(c2nc3ccccc3n2CCCCOc2c(C)cccc2C)CC1=O (stereo not shown) | 1 to 25 |
| COc1cccc(CN(C)S(=O)(=O)N(C)Cc2ccc(F)cc2)c1 | 25 to 50 |
| Cc1ccc(OCCn2c(CN3CCCCC3)nc3ccccc32)cc1C | 25 to 50 |
| CCc1ccc(C(=O)c2cc3ccccc3o2)s1 | 25 to 50 |
| Cc1cc(C)c(-c2csc(C3CC3)n2)cc1C | 25 to 50 |
| Cc1ccc(C)c(-c2csc(C3CN(Cc4ccccc4)CCO3)n2)c1 (stereo not shown) | 25 to 50 |
| COC(C)c1nc(CN(Cc2ccc(C#N)cc2)Cc2cccc(F)c2)cs1 (stereo not shown) | 25 to 50 |
| CC[S+]([O-])c1ccccc1C(=O)OCc1ccc(-c2ccccc2C#N)cc1 (stereo not shown) | 25 to 50 |
| Cc1cccc(-n2ccnc2SCCCc2nc(-c3cccs3)no2)c1 | 25 to 50 |
| CCCOc1ccc2ccccc2c1CN(C)C(=O)C1CCCN(c2ncccn2)C1 (stereo not shown) | 25 to 50 |
| CCc1ccccc1OCC(=O)N1N=C(c2ccccc2)CC1(O)C(F)(F)F (stereo not shown) | 25 to 50 |
| CN(Cc1ccc(S(=O)(=O)N(C)C)o1)c1ccccc1-c1ccccc1 | 1 to 25 |
| CC(C)(C)NS(=O)(=O)c1ccccc1CNC(=O)CCC1CCCCC1 | 25 to 50 |
| CCOC(=O)c1ccc2c(c1)n(Cc1occc1C(=O)OC)c(=O)n2CC | 1 to 25 |
| C=CCn1c(C)cc(C(=O)COC(=O)c2ccccc2Oc2ccccc2)c1C | 51 to 75 |
| COc1ccc(-c2csc3nc(C)nc(N(C)Cc4ccco4)c23)cc1OC | 25 to 50 |
| O=C(CCCOc1ccc(Cl)cc1Cl)N1N=CCC1(O)C(F)(F)F (stereo not shown) | 25 to 50 |
| Cc1ccc(CC(C#N)c2c(C#N)c(N)nc(N3CCCCC3)c2C#N)cc1 (stereo not shown) | 1 to 25 |

| Compound | inhibition at 20 µM [%] |
| --- | --- |
| C=CCc1cc(OCC)ccc1OCC(=O)NCc1ccc(OC)cc1 | 25 to 50 |
| CCN(CC(=O)Nc1ccccc1OC)Cc1coc(-c2ccc(C)cc2C)n1 | 25 to 50 |
| O=C(c1ccc(CSc2nc3ccccc3[nH]2)cc1)N1N=CCC1(O)C(F)(F)F (stereo not shown) | 25 to 50 |
| COc1ccc(N(CC(=O)N(c2ccccc2)C(C)C)S(=O)(=O)c2ccccc2C(F)(F)F)cc1 | 25 to 50 |
| CCOc1ccc(Oc2ccc(C(F)(F)F)cc2NC(=O)CC(NC(C)=O)c2ccccc2)cc1 (stereo not shown) | 1 to 25 |
| COc1ccc(C(C)=O)cc1CC(C(=O)c1ccc(C2CCCCC2)cc1)N(C)C (stereo not shown) | 25 to 50 |
| CCOc1ccc(CN(C)CC(=O)Nc2ccc3c(c2)c2ccccc2n3CC)cc1OC | 25 to 50 |
| COC(=O)c1ccc(Oc2ccc(S(=O)(=O)N3CCCCC3)cc2NCc2cc(C)on2)cc1 | 25 to 50 |
| Cc1nc(Cc2nnc(SCc3ccc(-c4ccccc4C#N)cc3)o2)cs1 | 1 to 25 |
| CCCN(CC1CC1)C(=O)COC(=O)c1c(C)nc(-c2cccs2)nc1SC | 1 to 25 |
| COC(=O)c1sccc1S(=O)(=O)NCCCCCc1nc(-c2ccc(C)cc2)no1 | 25 to 50 |
| CCC(C)c1ccc(S(=O)(=O)NC(c2ccccc2)c2ccccn2)cc1 (stereo not shown) | 25 to 50 |
| O=c1c(Cc2cc(Cl)c3cccnc3c2O)c(O)oc2ccccc12 | 25 to 50 |
| CC(C)(C)OC(=O)N1CCCN1c1nc(-c2cccs2)nc2ccccc12 | 25 to 50 |
| CCc1cc(N2CC(Cc3cc(OC)cc(OC)c3)C2)nc(-c2ccncc2)n1 | 1 to 25 |
| CC(C)(COc1ncccc1C(F)(F)F)Nc1nccc(C(F)(F)F)n1 | 25 to 50 |
| OCCN(Cc1ccc(Cl)c(Cl)c1)c1ncc(Br)cn1 | 1 to 25 |
| CCOC(=O)c1c(-c2ccc(Br)cc2)csc1/N=C/N(C)C | 25 to 50 |
| COc1ccccc1CN(Cc1cccs1)C(=O)c1ccc(COC(C)C)cc1 | 25 to 50 |
| COc1ccc(CCNc2nc(-c3cc(C)n(-c4ncn[nH]4)c3C)cs2)cc1OC | 25 to 50 |
| O=c1[nH]c(CN(CCc2ccc(Cl)cc2)Cc2nc3ccsc3c(=O)[nH]2)nc2ccsc12 | 25 to 50 |
| COc1cc(C(=O)NCC(c2cccs2)N(C)C)ccc1OCc1ccccc1Cl (stereo not shown) | 1 to 25 |

From US10940139B2, “Compounds that interact with the Ras superfamily for the treatment of cancers, inflammatory diseases, rasopathies, and fibrotic disease” (Shy Therapeutics LLC, priority 2017, dated 2021)
